This note sets out measurements from patent US5508428A, “Spiro compound” (Daiichi Phamaceutical Co., Ltd., priority 1988, dated 1996).

Format in all cases: cell-based
The test system of assay [1] is E. coli, NIHJ. Description: Antibacterial activity (MIC), E. coli NIHJ. To be noted: for MIC: Escherichia coli. As for the experimental part: (§1) The antibacterial activity assays were performed by the method specified by Japan Society of Chemotherapy (Chemotherapy 29(1), 76 (1981). The table of antibacterial activity is followed by the reaction schemes for the synthesis of various spiro ring-containing cyclic amine derivatives, intermediate compounds for synthesis of quinolone rings and synthesis of various spiro compounds.

Assay [2] concerns S. flexneri, 2A 5503. Description: Antibacterial activity (MIC), S. flexneri 2A 5503. To be noted: for MIC: Shigella flexneri, 2A5503. As for the experimental part: as §1
The subject of assay [3] is Pr. vulgaris, 08601. Description: Antibacterial activity (MIC), Pr. vulgaris 08601. To be noted: for MIC: Proteus vulgaris. On the procedure: as §1
The test system of assay [4] is Pr. mirabillis, IF0-3849. Description: Antibacterial activity (MIC), Pr. mirabillis IF0-3849. As for the experimental part: as §1
For assay [5], the system named is Ser. marcescens, 10100. Description: Antibacterial activity (MIC), Ser. marcescens 10100. To be noted: for MIC: Serratia marcescens, 10100, Ser. marcescens. On the procedure:
as §1

Assay [6] relates to Ps. aeruginosa, 32104. Description: Antibacterial activity (MIC), Ps. aeruginosa 32104. The conditions noted are these: for MIC: Pseudomonas aeruginosa, 32104, Ps. aeruginosa. As for the experimental part:
as §1

Assay [7] deals with Ps. aeruginosa, 32121. Kind of assay: Antibacterial activity (MIC), Ps. aeruginosa 32121. The conditions noted are these: for MIC: Pseudomonas aeruginosa, 32121, Ps. aeruginosa. As for the experimental part: as §1
Assay [8] has as its system Ps. maltophilia, IID-1275. Description: Antibacterial activity (MIC), Ps. maltophilia IID-1275. The conditions noted are these: for MIC: Stenotrophomonas maltophilia, IID1275, Ps. maltophilia. As for the experimental part:
as §1

Assay [9] relates to S. aureus, 209P. Kind of assay: Antibacterial activity (MIC), S. aureus 209P. To be noted: for MIC: Staphylococcus aureus. On the procedure: as §1
Assay [10] deals with S. epidermidis, 56500. Kind of assay: Antibacterial activity (MIC), S. epidermidis 56500. The conditions noted are these: for MIC: Staphylococcus epidermidis, 56500, S. epidermidis. As for the experimental part:
as §1

The test system of assay [11] is Str. pyogenes, G-36. Description: Antibacterial activity (MIC), Str. pyogenes G-36. To be noted: for MIC: Streptococcus pyogenes, G36, Str. pyogenes. As for the experimental part: as §1
Assay [12] relates to Str. faecalis, ATCC-19433. Description: Antibacterial activity (MIC), Str. faecalis ATCC-19433. To be noted: for MIC: Enterococcus faecalis, ATCC19433, Str. faecalis. On the procedure: as §1

≈ marks a conversion by molar mass, not a printed value.

Usually MIC stands for the lowest concentration that inhibits growth of the organism. As to `NC1CN(c2nc3c(cc2F)c(=O)c(C(=O)O)cn3C2CC2)CC12CC2` (single isomer, unassigned; (-)) [Compound 35b, (-)-7-(7-Amino-5-azaspiro[2.4]heptan-5-yl)-1-cyclopropyl-6-fluoro-4-oxo-1,4-dihydro-1,8-naphthyridine-3-carboxylic acid], the MIC in assay [1], in [2], in [3], in assay [4], in assay [5] and in [6] was ≤ 0.05 µg/mL each time. Moreover, the minimum inhibitory concentration (MIC) was ≤ 0.05 µg/mL in assay [7]; ≤ 0.05 µg/mL in [8]; ≤ 0.05 µg/mL in assay [9]; 0.1 µg/mL (≈ 0.279 µM) in [10]; 0.78 µg/mL (≈ 2.18 µM) in [11]; 0.39 µg/mL (≈ 1.09 µM) in assay [12].
As to `NC1CN(c2c(F)cc3c(=O)c(C(=O)O)cn(C4CC4)c3c2F)CC12CC2` (single isomer, unassigned; (-)) [Compound 31b, (-)-7-(7-Amino-5-azaspiro[2.4]heptan-5-yl)-1-cyclopropyl-6,8-difluoro-1,4-dihydro-4-oxoquinoline-3-carboxylic Acid], the “Antibacterial Activity (MIC)” value in [1], in [2], in assay [3], in [4], in assay [5] (Ser. marcescens) and in assay [6] (Ps. aeruginosa) was ≤ 0.05 µg/mL in each case. The “Antibacterial Activity (MIC)” value in [7] (Ps. aeruginosa) was ≤ 0.05 µg/mL; in assay [8] (Ps. maltophilia), ≤ 0.05 µg/mL; in assay [9] it was ≤ 0.05 µg/mL; in assay [10] (S. epidermidis) it was ≤ 0.05 µg/mL; in assay [11] (Str. pyogenes), 0.10 µg/mL; in [12] (Str. faecalis), 0.10 µg/mL.
Consider `NC1CN(c2nc3c(cc2F)c(=O)c(C(=O)O)cn3C2CC2)CC12CC2` (stereo not drawn) [Compound 35, 7-(7-amino-5-azaspiro[2.4]heptan-5-yl)-1-cyclopropyl-6-fluoro-1,4-dihydro-4-oxo-1,8-naphthyridine-3-carboxylic acid], for which the MIC is ≤ 0.05 µg/mL in [1]; ≤ 0.05 µg/mL in assay [2]; ≤ 0.05 µg/mL in assay [3]; 0.1 µg/mL (≈ 0.279 µM) in assay [4]; ≤ 0.05 µg/mL in [5]; 0.1 µg/mL (≈ 0.279 µM) in assay [6]. The MIC in [7] is ≤ 0.05 µg/mL; in assay [8] it was ≤ 0.05 µg/mL; in [9], 0.1 µg/mL (≈ 0.279 µM); in assay [10], 0.2 µg/mL (≈ 0.558 µM); in [11] it was 0.78 µg/mL (≈ 2.18 µM); in assay [12] it was 0.39 µg/mL (≈ 1.09 µM).
As for `NC1CN(c2cc3c(cc2F)c(=O)c(C(=O)O)cn3-c2ccc(F)cc2F)CC12CC2` (stereo not drawn) [Compound 34, 7-(7-amino-5-azaspiro[2.4]heptan-5-yl)-6-fluoro-1-(2.4-difluorophenyl)-1,4-dihydro-4-oxoquinoline-3-carboxylic acid], the minimum inhibitory concentration (MIC) in assay [1] is ≤ 0.05 µg/mL; in assay [2] it was ≤ 0.05 µg/mL; in [3], 0.2 µg/mL (≈ 0.466 µM); in assay [4] it was 0.39 µg/mL (≈ 0.908 µM); in [5] it was 0.39 µg/mL (≈ 0.908 µM); in assay [6] it was 0.39 µg/mL (≈ 0.908 µM). Also, the MIC in [7] was 0.2 µg/mL (≈ 0.466 µM); in assay [8] it was 0.1 µg/mL (≈ 0.233 µM); in [9] it was 0.1 µg/mL (≈ 0.233 µM); in assay [10], 0.2 µg/mL (≈ 0.466 µM); in assay [11], 0.39 µg/mL (≈ 0.908 µM); in assay [12] it was 0.78 µg/mL (≈ 1.82 µM).
Consider `NC1CN(c2c(F)cc3c(=O)c(C(=O)O)cn(C4CC4)c3c2F)CC12CCC2` (stereo not drawn) [Compound 94], for which the minimal inhibitory concentration (MIC) in assay [1] was ≤ 0.05 µg/mL; in [2], ≤ 0.05 µg/mL; in [3], ≤ 0.05 µg/mL; in assay [4], 0.1 µg/mL (≈ 0.257 µM); in assay [5], 0.1 µg/mL (≈ 0.257 µM); in assay [6] it was 0.1 µg/mL (≈ 0.257 µM). Moreover, the minimal inhibitory concentration (MIC) in assay [7] was 0.39 µg/mL (≈ 1 µM); in [8] it was 0.2 µg/mL (≈ 0.514 µM); in assay [9], ≤ 0.05 µg/mL; in assay [10], ≤ 0.05 µg/mL; in assay [11], 0.39 µg/mL (≈ 1 µM); in assay [12], 0.2 µg/mL (≈ 0.514 µM).
Consider `C[C@H]1COc2c(N3CC(N)C4(CCC4)C3)c(F)cc3c(=O)c(C(=O)O)cn1c23` (stereo partly drawn) [Compound 98, 10-(8-Amino-6-azaspiro[3.4]octan-6-yl)-9-fluoro-2,3-dihydro-3-(S)-methyl-7-oxo-7H-pyrido[1,2,3-de][1,4]-benzoxazine-6-carboxylic acid], for which the minimum inhibitory concentration (MIC) is ≤ 0.05 µg/mL in [1]; ≤ 0.05 µg/mL in assay [2]; ≤ 0.05 µg/mL in assay [3]; 0.2 µg/mL (≈ 0.516 µM) in assay [4]; 0.1 µg/mL (≈ 0.258 µM) in assay [5]; 0.39 µg/mL (≈ 1.01 µM) in [6]. The minimal inhibitory concentration (MIC) in assay [7] was 0.2 µg/mL (≈ 0.516 µM); in [8], 0.2 µg/mL (≈ 0.516 µM); in assay [9], ≤ 0.05 µg/mL; in assay [10] it was ≤ 0.05 µg/mL; in [11], 0.39 µg/mL (≈ 1.01 µM); in [12] it was 0.2 µg/mL (≈ 0.516 µM).
